Some test systems named below: MDA-MB-435; Malme-3M; DU-145; IGROV-1; MOLT-4; SNB-19; RPMI-8226; SR; HT-29; NCI-H226; KM12; SK-MEL-5; NCI/ADR-RES; HCT-15; COLO 205; HOP-92; HCT-116; SF-268; UACC-62; A498.
Experiment in all cases: growth of human tumour cells (NCI), 48 h

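Five compound concentrations were applied to cells in 96-well plates for 48 hours; endpoints were derived by simple linear interpolation of the resulting dose-response curve. The concentration for 50% growth inhibition is given as GI50.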 Activity calls are given as the source filed them. Rule as the data show it: active = GI50 up to about 1.1 µM and inactive = higher.

`C#CCSc1nc(-c2ccco2)n[nH]1`: the GI50 in the assay with MDA-MB-435 is > 100 µM (inactive); in the assay with Malme-3M it was > 100 µM (inactive); with DU-145 it was > 100 µM (inactive); with IGROV-1, 48.5 µM (inactive); in the assay with MOLT-4, > 100 µM (inactive); in the assay on SNB-19, > 100 µM (inactive). The GI50 in the assay with RPMI-8226, in the assay with SR, in the assay with HT-29, with NCI-H226, in the assay with KM12 and in the assay with SK-MEL-5 was > 100 µM (inactive) in each case. Further, the GI50 in the assay with NCI/ADR-RES is > 100 µM (inactive); in the assay with HCT-15 it was greater than 100 µM; with COLO 205, > 100 µM (inactive); in the assay with HOP-92, > 100 µM (inactive); in the assay with HCT-116 it was > 100 µM (inactive); in the assay on SF-268, > 100 µM (inactive). For the same compound, the GI50 with UACC-62 and in the assay on A498 was > 100 µM (inactive) each time.

For the compound `c1ccc(/N=C2\SC(c3ccccc3)CN2C23CC4CC(CC(C4)C2)C3)cc1` (stereo not given), the GI50 in the assay on MDA-MB-435, in the assay with Malme-3M, with DU-145, in the assay with IGROV-1, with MOLT-4 and in the assay with SNB-19 was > 100 µM (inactive) each time. Moreover, the GI50 in the assay on RPMI-8226, with SR, in the assay with HT-29, with NCI-H226, with KM12 and in the assay with SK-MEL-5 was > 100 µM (inactive) throughout. The GI50 was > 100 µM (inactive) in the assay with NCI/ADR-RES; greater than 100 µM with HCT-15; > 100 µM (inactive) in the assay on COLO 205; > 100 µM (inactive) with HOP-92; > 100 µM (inactive) with HCT-116; > 100 µM (inactive) in the assay with SF-268. For the same compound, the GI50 with A498 was > 100 µM (inactive).

For the compound `Cc1cc(N(CCCl)CCCl)ccc1/C=N/NC(=O)Cc1cc(=O)oc2cc(O)ccc12`, the GI50 with MDA-MB-435 was 11.2 µM (inactive); in the assay on Malme-3M, 12.6 µM (inactive); in the assay with DU-145 it was 18.5 µM (inactive); in the assay on IGROV-1 it was 15.8 µM (inactive); with MOLT-4, 5.6 µM (inactive); with SNB-19, 18 µM (inactive). For the same compound, the GI50 was 16 µM (inactive) in the assay with RPMI-8226; 7.08 µM (inactive) in the assay on SR; 14.7 µM (inactive) with HT-29; 15.7 µM (inactive) with NCI-H226; 16.6 µM (inactive) with KM12; 8.51 µM (inactive) in the assay with SK-MEL-5. Further, the GI50 in the assay with NCI/ADR-RES is 37.6 µM (inactive); in the assay with HCT-15 it was 14.4 µM; in the assay with COLO 205, 17.7 µM (inactive); in the assay on HOP-92, 27 µM (inactive); in the assay with HCT-116, 17.5 µM (inactive); with SF-268, 10.2 µM (inactive). For the same compound, the results for the GI50 in the assay with UACC-62 and in the assay with A498 were 2.37 µM (inactive) and 13.7 µM (inactive), respectively.

On to `CC1OC(OC2C(O)COC(OC3C(C)OC(OC4C(OC(=O)[C@]56CCC(C)(C)C[C@@H]5C5=CCC7[C@@]8(C)C[C@H](O)[C@H](OC9OC(CO)C(O)C(OC%10OC(CO)C(O)C(O)C%10O)C9O)[C@@](C)(CO)[C@@H]8CC[C@@]7(C)[C@]5(C)CC6)OCC(O)C4O)C(O)C3O)C2O)C(O)C(O)C1O` (stereo not given in full), for which the GI50 in the assay on MDA-MB-435 is 20.9 µM (inactive); with Malme-3M it was 13.8 µM (inactive); with DU-145 it was 14.6 µM (inactive); with MOLT-4 it was 15.5 µM (inactive); with SNB-19 it was 16.4 µM (inactive); in the assay on RPMI-8226 it was 18.3 µM (inactive). For the same compound, the GI50 was 13.1 µM (inactive) in the assay with SR; 17.2 µM (inactive) in the assay with HT-29; 23.1 µM (inactive) in the assay with NCI-H226; 18.8 µM (inactive) in the assay on KM12; 16 µM (inactive) in the assay on SK-MEL-5; 14.5 µM (inactive) in the assay on NCI/ADR-RES. For the same compound, the GI50 with HCT-15 is 19.7 µM; in the assay on COLO 205 it was 5.15 µM (inactive); with HOP-92, 20.6 µM (inactive); in the assay on HCT-116 it was 17.7 µM (inactive); with SF-268, 21.4 µM (inactive); in the assay on UACC-62 it was 22.3 µM (inactive). Further, the GI50 in the assay on A498 is 11.8 µM (inactive).

Turning to `C[C@]12CC[C@H]3[C@@H](CCC4=CC(=O)CC[C@@]43C)[C@@H]1CC[C@@H]2C(=O)Nc1ccc([N+](=O)[O-])c(C(F)(F)F)c1`, the GI50 with MDA-MB-435 is 18 µM (inactive); in the assay with Malme-3M, 15.6 µM (inactive); with DU-145, 20.7 µM (inactive); with IGROV-1, 22.8 µM (inactive); in the assay with MOLT-4, 24.2 µM (inactive); in the assay with SNB-19, 18.5 µM (inactive). Besides, the GI50 with RPMI-8226 is 56.1 µM (inactive); in the assay on SR, 23.7 µM (inactive); in the assay with HT-29, 18.2 µM (inactive); in the assay with NCI-H226 it was 21.2 µM (inactive); in the assay on KM12, 16 µM (inactive); in the assay with SK-MEL-5, 14.3 µM (inactive). Further, the GI50 in the assay with NCI/ADR-RES is 13.3 µM (inactive); in the assay on HCT-15, 12 µM; in the assay on COLO 205, 18.2 µM (inactive); in the assay with HOP-92, 39.8 µM (inactive); in the assay on HCT-116, 17.5 µM (inactive); in the assay with SF-268, 21.4 µM (inactive). The GI50 was 15.3 µM (inactive) in the assay with UACC-62 and 17.6 µM (inactive) in the assay with A498.

With `Fc1cccc(F)c1C1SCc2nc3cc4ccccc4cc3n21` (stereo not given), the GI50 with MDA-MB-435 was 49.9 µM (inactive); in the assay with Malme-3M, 39.2 µM (inactive); in the assay on DU-145, 80.4 µM (inactive); in the assay on IGROV-1, 21.7 µM (inactive); in the assay with MOLT-4 it was 15.3 µM (inactive); in the assay on RPMI-8226 it was 6.92 µM (inactive). Further, the GI50 in the assay on SR is 17.5 µM (inactive); in the assay on HT-29 it was 20.2 µM (inactive); with NCI-H226, 23.3 µM (inactive); in the assay with KM12 it was 34 µM (inactive); in the assay on SK-MEL-5 it was 21.8 µM (inactive); in the assay on NCI/ADR-RES it was > 100 µM (inactive). The GI50 is 16 µM in the assay with HCT-15; 31.2 µM (inactive) with COLO 205; 16.3 µM (inactive) in the assay with HOP-92; 47 µM (inactive) in the assay with HCT-116; 52.2 µM (inactive) in the assay on SF-268; 23.4 µM (inactive) in the assay with UACC-62. In the assay with A498, the GI50 was 21.2 µM (inactive).

For `S=C1N=C(Cl)/C(=C\c2ccccc2)N1`, the GI50 in the assay with MDA-MB-435 was > 100 µM (inactive); with Malme-3M, > 83.6 µM (inactive); in the assay on DU-145, > 100 µM (inactive); in the assay with IGROV-1 it was > 100 µM (inactive); with MOLT-4 it was > 100 µM (inactive); in the assay on SNB-19, > 100 µM (inactive). Besides, the GI50 with RPMI-8226 was > 100 µM (inactive); in the assay on SR it was > 100 µM (inactive); with HT-29 it was > 100 µM (inactive); with NCI-H226 it was > 100 µM (inactive); in the assay with KM12, > 87.7 µM (inactive); in the assay with SK-MEL-5, > 100 µM (inactive). Moreover, the GI50 was > 100 µM (inactive) in the assay with NCI/ADR-RES; greater than 100 µM in the assay with HCT-15; > 100 µM (inactive) in the assay on COLO 205; > 100 µM (inactive) with HOP-92; > 100 µM (inactive) with HCT-116; > 100 µM (inactive) with SF-268. Moreover, the GI50 with UACC-62 and with A498 was > 100 µM (inactive) throughout.

As for `CC(CN(C)C)C(=O)/C=C/c1ccc(Cl)c(Cl)c1` (stereo not given), the GI50 in the assay with MDA-MB-435 was 1.63 µM (inactive); in the assay with DU-145, > 100 µM (inactive); with IGROV-1 it was 1.78 µM (inactive); in the assay with MOLT-4, 2.67 µM (inactive); in the assay on SNB-19, 5.43 µM (inactive); with RPMI-8226, 0.338 µM (active). The GI50 in the assay on SR is 1.02 µM (active); in the assay with HT-29, 1.67 µM (inactive); with NCI-H226 it was 2.2 µM (inactive); with KM12, 1.31 µM (inactive); in the assay on SK-MEL-5 it was 1.6 µM (inactive); in the assay with NCI/ADR-RES, 3.52 µM (inactive). In addition, the GI50 with HCT-15 was 1.59 µM; with COLO 205, 1.3 µM (inactive); in the assay with HOP-92, 1.68 µM (inactive); in the assay on HCT-116 it was 1.56 µM (inactive); with SF-268, 1.85 µM (inactive); in the assay on UACC-62, 1.8 µM (inactive). Moreover, the GI50 in the assay with A498 is 1.78 µM (inactive).

Regarding `CC1C(C#N)(C#N)C(C#N)=C(N)C1(C)[N+](=O)[O-]` (stereo not given), the GI50 in the assay with MDA-MB-435 was 45.7 µM (inactive); with Malme-3M, 48.2 µM (inactive); with DU-145 it was > 100 µM (inactive); with IGROV-1, 37.2 µM (inactive); in the assay with MOLT-4 it was 25.4 µM (inactive); in the assay with SNB-19, > 100 µM (inactive). Besides, the GI50 was 28.7 µM (inactive) in the assay on RPMI-8226; 31.2 µM (inactive) in the assay with SR; 26.2 µM (inactive) in the assay on HT-29; > 100 µM (inactive) in the assay with NCI-H226; > 100 µM (inactive) with KM12; > 100 µM (inactive) in the assay with SK-MEL-5. The GI50 is > 100 µM (inactive) in the assay on NCI/ADR-RES; 33.7 µM with HCT-15; 44.6 µM (inactive) in the assay with COLO 205; 2.92 µM (inactive) in the assay on HOP-92; 58.3 µM (inactive) with HCT-116; > 100 µM (inactive) in the assay on SF-268. The GI50 in the assay on UACC-62 was 50.4 µM (inactive); in the assay with A498, 68.2 µM (inactive).

Regarding `O=C(/C=C/c1ccccc1)c1cc(CN2CCOCC2)c(O)c(CN2CCOCC2)c1`, the GI50 is 14.5 µM (inactive) with MDA-MB-435; 16 µM (inactive) in the assay on DU-145; > 100 µM (inactive) in the assay on IGROV-1; 16.7 µM (inactive) with MOLT-4; 94 µM (inactive) in the assay on SNB-19; 4.55 µM (inactive) in the assay with RPMI-8226. The GI50 was 5.51 µM (inactive) in the assay on SR; 17.4 µM (inactive) in the assay with HT-29; 26.6 µM (inactive) in the assay on NCI-H226; 15.5 µM (inactive) in the assay with KM12; 13.1 µM (inactive) with SK-MEL-5; 25.5 µM (inactive) with NCI/ADR-RES. For the same compound, the GI50 was 7.5 µM with HCT-15; 11.3 µM (inactive) with COLO 205; 12.1 µM (inactive) in the assay on HOP-92; 12.6 µM (inactive) in the assay with HCT-116; 19.1 µM (inactive) in the assay on SF-268; 17 µM (inactive) with UACC-62. In addition, the GI50 with A498 was 12.9 µM (inactive).
